Among the data in patent US10947263B2, “Cyclic dinucleotides as anticancer agents” (BRISTOL-MYERS SQUIBB COMPANY, priority 2017, dated 2021) are EC50 and IC50 values, retold here.

Assay [1] deals with STING / IRF pathway in THP1-Dual cells. The experiment in a line: STING THP1 Reporter Assay, IRF pathway (secreted Lucia luciferase, QUANTI-Luc). The assay is classed as cell-based. The note with it: 10% human plasma, 100% activation = 100 μM cGAMP, luciferase readout, read-out: THP1 Reporter Assays EC50 IRF3. The source says:
(§1) THP1-Dual™ cells were derived from the human THP-1 monocyte cell line by stable integration of two inducible reporter constructs. To this end, THP1-Dual™ cells allow the simultaneous study of the […], by monitoring the activity of SEAP, and the IRF pathway by assessing the activity of a secreted luciferase (Lucia). Both reporter proteins are readily measurable in the cell culture supernatant when using QUANTI-Blue™, a SEAP detection reagent, and QUANTI-Luc™, a luciferase detection reagent.
(§2) THP1-Dual™ cells induce the activation of NF-κB in response to STING agonists. They also trigger the IRF pathway upon stimulation with STING agonists, such as cGAMP. Here, the THP-1-Dual cells were used to assess STING binders for function on the cellular level.
(§3) Serial dilutions of compounds in DMSO were added to low volume 384 well plates at 100 nl/well using an ECHO acoustic dispenser (Labcyte, model 550) to achieve final starting concentration of 100 μM in cell suspension. THP-1 Dual™ STING reporter cells (Invivogen, Dual cells cat #THPD-nfis) were added to the plates with compounds at 15,000 cells in 10 μL per well in RPMI media (Gibco, cat #11875) containing 10% human plasma in a low volume 384-well black wall clear bottom tissue culture plate (Corning, cat #3542) for SEAP assay and low volume solid white plate (Corning, cat #3826) for luciferase assay. One column of the plate was reserved for treatment with cGAMP at 100 μM for 100% activation calculation and one column for no treatment (DMSO only) for baseline activation. Plates were then incubated in 37 OC incubator at 5% CO2 for 20 hours.
(§4) In the SEAP assay, […] 2× QuantiBlue (Invivogen, cat #Rep-qb2) is added to 384 well black plates seeded with THP1 cells and incubated at 37° C. for 2 hours. Plates were read on the Envision (Perkin Elmer) at 620 nm wavelength (OD620). In the luciferase assay, 5 μl of Quantiluc (Invivogen, Rep-qlc2) is added to white 384 well plates seeded with THP1 cells and read at 5 minutes on the Envision (Perkin Elmer) using a luminescence protocol (RLU). For both cell lines, 100% activation was determined by value (RLU) of THP-1 Dual STING cells stimulated with 100 μM cGAMP (Invivogen, cat #TLRL-NACGA23-5).
In general terms: In a reporter assay the amount or activity of a reporter protein is the signal.

The test system of assay [2] is STING / NF-κB pathway in THP1-Dual cells. The experiment in a line: STING THP1 Reporter Assay, NF-κB pathway (SEAP, QUANTI-Blue). The assay is classed as cell-based. The note with it: 10% human plasma, 100% activation = 100 μM cGAMP, SEAP readout, read-out: THP1 Reporter Assays EC50 NFkB.
Text: as §1, §2, §3, §4

In assay [3] the target is T1, STING WT (His-TVMV-S-hSTING(155-341)-H232R) (Homo sapiens, UniProt Q86WV6, H232R).
T1 construct: STING WT: His-TVMV-S-hSTING(155-341)-H232R
The experiment in a line: STING HTRF binding assay (time resolved FRET competition), STING WT. The note with it: 20 nM His-tagged STING WT cytoplasmic domain, 200 nM fluorescein-labeled cGAMP analog probe, one hour; read-out: HTRF Binding Assays IC50 WT. How it is done:
(§5) A time resolved FRET-based competition binding assay was used to assess test article binding to STING WT and STING AQ. His-tagged STING cytoplasmic domain (WT or AQ) at a concentration of 20 nM was incubated with 2.5 nM Tb-labeled anti-His antibody, test compound, and fluorescein-labeled cGAMP analog probe (BioLog cat. no. C195) at a concentration of 200 nM (STING WT) or 40 nM (STING AQ) in PBS containing 0.005% Tween-20 and 0.1% BSA for one hour. Fluorescence at 495 nm and 520 nm was measured using an EnVision microplate reader to quantify FRET between Tb-labeled anti-His antibody and fluorescein-labeled probe. Background was defined as the signal obtained in the absence of STING protein, and background subtracted FRET ratios were normalized to the maximum signal obtained in the absence of test compound. These values were converted to a percent inhibition. Percent inhibition was determined for test compounds at 11 concentrations. The IC50, defined as the concentration of competing test compound needed to reduce specific binding of the probe by 50%, was calculated using the 4 parameter logistic equation to fit the data
STING WT: His-TVMV-S-hSTING(155-341)-H232R • […] […] […] […] LRQEEKEEV (SEQ ID NO:1)
In general terms: Time-resolved FRET reads energy transfer from a long-lived donor to a nearby acceptor.

The target of assay [4] is T2, STING AQ (His-TVMV-S-hSTING(155-341)-G230A-R293Q) (Homo sapiens, UniProt Q86WV6, G230A/H232R/R293Q).
T2 construct: STING AQ: His-TVMV-S-hSTING(155-341)-G230A-R293Q
Briefly: STING HTRF binding assay (time resolved FRET competition), STING AQ. The note with it: 20 nM His-tagged STING AQ cytoplasmic domain, 40 nM fluorescein-labeled cGAMP analog probe, one hour; read-out: HTRF Binding Assays IC50 AQ. The protocol: as §5
STING AQ: His-TVMV-S-hSTING(155-341)-G230A-R293Q • […] […] […] […] LRQEEKEEV (SEQ ID NO:2)

Where two headings read alike, the source gives them in different places.

The term EC50 denotes the concentration giving half of the maximal effect. As a reminder, the IC50 is the concentration at which inhibition is half-maximal.

T1 sequence (Q86WV6 with tags, fused parts or gaps H232R): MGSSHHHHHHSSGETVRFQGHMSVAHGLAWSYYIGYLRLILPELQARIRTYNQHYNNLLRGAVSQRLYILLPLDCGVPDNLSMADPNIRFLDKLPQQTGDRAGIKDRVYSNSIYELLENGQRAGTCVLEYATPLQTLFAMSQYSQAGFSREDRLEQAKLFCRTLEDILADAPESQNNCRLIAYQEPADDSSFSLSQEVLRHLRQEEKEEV
T2 sequence (Q86WV6 with tags, fused parts or gaps G230A/H232R/R293Q): as the sequence (Q86WV6 with tags, fused parts or gaps H232R) above, with G99A, R162Q counted along it

On to `Nc1ncnc2c1ncn2[C@@H]1O[C@@H]2COP(=O)(S)O[C@@H]3[C@H](F)[C@@H](COP(=O)(S)O[C@H]2[C@H]1F)O[C@H]3n1nnc2c(N)cccc21` (single isomer, unassigned) [Example 12-1], for which the EC50 came out at 1600 nM in assay [1] (Homo sapiens, THP1-Dual, 20 h) and 5400 nM in assay [2] (Homo sapiens, THP1-Dual, 20 h). Besides, the figures for the IC50 in assay [3] and in assay [4] were 80 nM and 10 nM, respectively.

With `Nc1ncnc2c1ncn2[C@@H]1O[C@@H]2COP(=O)(S)O[C@@H]3[C@H](F)[C@@H](COP(=O)(S)O[C@H]2[C@H]1F)O[C@H]3n1nnc2c([N+](=O)[O-])cccc21` (single isomer, unassigned) [Example 11-1], the figures for the EC50 in assay [1] (20 hours) and in assay [2] (20 hours) were 1200 nM and 2100 nM, respectively. Besides, the concentration for half-maximal inhibition (IC50) in assay [3] was found to be 10 nM; in assay [4], 2 nM.

Regarding `C=C1[C@H]2OP(=O)(S)OC[C@H]3O[C@@H](n4cnc5c(N)ncnc54)[C@H](F)[C@@H]3OP(=O)(S)OC[C@H]1O[C@H]2n1nnc2c(C(N)=O)cccc21` (single isomer, unassigned) [Example 22-1], the EC50 turned out to be 2300 nM in assay [1] (Homo sapiens, THP1-Dual, 20 h) and 5100 nM in assay [2] (Homo sapiens, THP1-Dual, 20 h). The IC50 in assay [3] and in assay [4] was 10 nM throughout.

As for `C=C1[C@H]2OP(=O)(S)OC[C@H]3O[C@@H](n4cnc5c(N)ncnc54)[C@H](F)[C@@H]3OP(=O)(S)OC[C@H]1O[C@H]2n1nnc2c(C(N)=O)cccc21` (single isomer, unassigned) [Example 22-2], the values for the EC50 in assay [1] (20 hours) and in assay [2] (20 hours) were 3200 nM and 10000 nM, respectively. In addition, the IC50 in assay [3] turned out to be 70 nM; in assay [4], 10 nM.

Consider `NC(=O)c1cccc2c1nnn2[C@@H]1O[C@@H]2COP(=O)(O)O[C@H]3[C@@H](F)[C@H](n4cnc5c(N)ncnc54)O[C@@H]3COP(=O)(S)O[C@@H]1[C@@H]2F` (single isomer, unassigned) [Example 6-2], for which the values for the half-maximal effective concentration (EC50) in assay [1] (20 hours) and in assay [2] (20 hours) were 8800 nM and 36800 nM, respectively. In addition, the IC50 stood at 50 nM in assay [3] and 4 nM in assay [4].

For `NC(=O)c1cccc2c1nnn2[C@@H]1O[C@@H]2COP(=O)(S)O[C@H]3[C@@H](F)[C@H](n4cnc5c(N)ncnc54)O[C@@H]3COP(=O)(S)O[C@@H]1[C@@H]2O` (single isomer, unassigned) [Example 8-2], the EC50 in assay [1] (20 hours) is 5200 nM; in assay [2] (20 hours) it was 7600 nM. For the same molecule, the IC50 in assay [3] and in assay [4] was 10 nM throughout.

`Nc1ncnc2c1ncn2[C@@H]1O[C@@H]2COP(=O)(S)O[C@@H]3[C@H](O)[C@@H](COP(=O)(S)O[C@H]2[C@H]1F)O[C@H]3n1nnc2c([N+](=O)[O-])cccc21` (single isomer, unassigned) [Example 7-1]: the EC50 amounted to 600 nM in assay [1] (20 hours) and 2100 nM in assay [2] (20 hours). The IC50 in assay [3] and in assay [4] was 10 nM throughout.

As to `NC(=O)c1cccc2c1nnn2[C@@H]1O[C@@H]2COP(=O)(O)O[C@H]3[C@@H](F)[C@H](n4cnc5c(N)ncnc54)O[C@@H]3COP(=O)(O)O[C@@H]1[C@@H]2F` [Example 3, 1-[(1S,6R,8R,9R,10R,15R, 17R,18R)-8-(6-amino-9H-purin-9-yl)-9,18-difluoro-3,12-dihydroxy-3,12-dioxo-2,4,7,11,13,16-hexaoxa-3λ^5,12λ^5-diphosphatricyclo [13.2.1.0^6,^10]octadecan-17-yl]-1H-1,2,3-benzotriazole-4-carboxamide], the EC50 in assay [1] (Homo sapiens, THP1-Dual, 20 h) worked out at 3500 nM; in assay [2] (Homo sapiens, THP1-Dual, 20 h), 6700 nM. Also, the IC50 in assay [3] worked out at 30 nM; in assay [4], 10 nM.

As for `NC(=O)c1cccc2c1nnn2[C@@H]1O[C@@H]2COP(=O)(S)O[C@H]3[C@@H](F)[C@H](n4cnc5c(N)ncnc54)O[C@@H]3COP(=O)(S)O[C@@H]1[C@@H]2F` (single isomer, unassigned) [Example 10-1], the half-maximal effective concentration (EC50) in assay [1] (20 hours) worked out at 1330 nM; in assay [2] (20 hours), 2220 nM. The IC50 in assay [3] is 20 nM; in assay [4], 5 nM.

As to `Nc1ncnc2c1ncn2[C@@H]1O[C@@H]2COP(=O)(S)O[C@@H]3[C@H](O)[C@@H](COP(=O)(S)O[C@H]2[C@H]1F)O[C@H]3n1nnc2c([N+](=O)[O-])cccc21` (single isomer, unassigned) [Example 7-4], the values for the EC50 in assay [1] (20 hours) and in assay [2] (20 hours) were 5500 nM and 8000 nM, respectively. Also, the values for the IC50 in assay [3] and in assay [4] were 50 nM and 10 nM, respectively.

Consider `Nc1ncnc2c1ncn2[C@@H]1O[C@@H]2COP(=O)(S)O[C@@H]3[C@H](O)[C@@H](COP(=O)(O)O[C@H]2[C@H]1F)O[C@H]3n1nnc2c([N+](=O)[O-])cccc21` (single isomer, unassigned) [Example 5-1], for which the EC50 in assay [1] (Homo sapiens, THP1-Dual, 20 h) turned out to be 3500 nM; in assay [2] (Homo sapiens, THP1-Dual, 20 h), 7600 nM. The half-inhibitory concentration (IC50) in assay [3] and in assay [4] was 10 nM each time.

Take `Nc1ncnc2c1ncn2[C@@H]1O[C@@H]2COP(=O)(S)O[C@@H]3[C@H](O)[C@@H](COP(=O)(S)O[C@H]2[C@H]1F)O[C@H]3n1nnc2c(C(F)(F)F)cccc21` (single isomer, unassigned) [Example 9-4]: the EC50 in assay [1] (20 hours) and in assay [2] (20 hours) was > 100000 nM in each case. Moreover, the IC50 worked out at 12500 nM in assay [3] and 600 nM in assay [4].

`NC(=O)c1cccc2c1nnn2[C@@H]1O[C@@H]2COP(=O)(O)O[C@H]3[C@@H](F)[C@H](n4cnc5c(N)ncnc54)O[C@@H]3COP(=O)(S)O[C@@H]1[C@@H]2F` (single isomer, unassigned) [Example 6-1]: the figures for the EC50 in assay [1] (20 hours) and in assay [2] (20 hours) were 1400 nM and 4100 nM, respectively. Further, the half-maximal inhibitory concentration (IC50) in assay [3] amounted to 20 nM; in assay [4] it was 10 nM.

In the case of `Nc1ncnc2c1ncn2[C@@H]1O[C@@H]2COP(=O)(S)O[C@@H]3[C@H](F)[C@@H](COP(=O)(S)O[C@H]2[C@H]1F)O[C@H]3n1nnc2c([N+](=O)[O-])cccc21` (single isomer, unassigned) [Example 11-2], the results for the EC50 in assay [1] (20 hours) and in assay [2] (20 hours) were 130 nM and 300 nM, respectively. In addition, the IC50 in assay [3] was found to be 10 nM; in assay [4], 3 nM.

Consider `Nc1ncnc2c1ncn2[C@@H]1O[C@@H]2COP(=O)(O)O[C@@H]3[C@H](O)[C@@H](COP(=O)(S)O[C@H]2[C@H]1F)O[C@H]3n1nnc2c([N+](=O)[O-])cccc21` (stereo partly drawn) [Example 19-1, (1R,6R,8R,9R,10R,15R,17R, 18R)-8-(6-amino-9H-purin-9-yl)-9-fluoro-3,12,18-trihydroxy-17-(4-nitro-1H-1,2,3-benzotriazol-1-yl)-12-sulfanylidene-2,4,7,11,13, 16-hexaoxa-3λ^5,12λ^5-diphos-phatricyclo[13.2.1.0^6,10]octa-decan-3-one], for which the EC50 in assay [1] (Homo sapiens, THP1-Dual, 20 h) was > 100000 nM; in assay [2] (Homo sapiens, THP1-Dual, 20 h) it was > 100000 nM. Besides, the IC50 is 4660 nM in assay [3] and 650 nM in assay [4].
